From patent publication US20240360154A1, “AROYL SUBSTITUTED TRICYCLIC COMPOUND, PREPARATION METHOD THEREFOR AND USE THEREOF” (GENFLEET THERAPEUTICS (SHANGHAI) INC., priority 2020, published 2024)
Where a name gives a salt, the structure may show the parent alone.

Assays:
BTK = BTK (Homo sapiens (Human), UniProt Q06187); assay: BTK enzyme experiment (ADP-Glo kinase assay); assay type: biochemical; settings: 10 nM BTK, ATP 125 μM, Poly(Glu4, Tyr1), 90 minutes at 20° C.; read-out: BTK(WT) IC50
Procedure: (§1) A 3-fold gradient concentration stock solution of 1000× compound was prepared using DMSO and diluted 100-fold to 10× compound stock solution using reaction buffer (50 mM HEPES, pH 7.5, 0.0015% Briji-35, 2 mM DTT, 10 mM MgCl2), and the 10× compound stock solution was transferred to a 384-well plate. Enzyme reactions were set up with BTK Kinase Enzyme System (Promega Catalog #V2941) or BTK (C481S) Kinase Enzyme System (Promega Catalog #VA7033). First, a 2× enzyme solution containing 10 nM BTK or 10 nM BTK C481S was prepared with reaction buffer and added to the plate, and incubated with the compound for 10 minutes. […] Finally, the kinase activity was detected according to the experimental steps provided by ADP-Glo™ kinase Assay Kit (Promega, #V9101), and finally the luminescence chemiluminescence value was read. DMSO was used as the maximum signal value, and adding no enzyme was used as the minimum signal value. The inhibition rate of the compound (%)=(maximum signal value−compound signal value)/(maximum signal value−minimum signal value)×100% was calculated. The compound gradient dilution concentration and the corresponding inhibition rate of the enzyme activity were fit by using XLFit four-parameter method, and IC50 value was calculated.

TMD-8 cells = assay: TMD-8 proliferation inhibition experiment; assay type: cell-based; settings: human diffuse large B lymphoma cells, three days incubation
Procedure: TMD-8 cells are human diffuse large B lymphoma (Mingzhou Bio, MZ-0832), cultured in 10% FBS+1% PS 1640 medium; OCI-LY10 is human diffuse large B lymphoma (BeNa Culture Collection, BNCC337742), cultured in 10% FBS+1% PS IMDM. Day 1: Cells at logarithmic growth phase were taken, counted and inoculated 600 TMD-8 or 2000 OCI-LY10 cells in a 384-well cell culture plate and cultured overnight. Day 2: A 3-fold gradient concentration stock solution of 400× compound was prepared with DMSO, and diluted 40-fold to a 10× compound stock solution with culture medium. The 10× compound stock solution was added to each cell culture well with a final concentration of 1× compound stock solution and a DMSO content of 0.25%. DMSO was used as experimental control, and culture medium was used as blank control. The incubation was continued for three days after compound addition. On the fifth day, 25 μL of […] was added to each well, mixed well and incubated for 10 minutes, then the chemiluminescence value (RLU value) was read. The cell proliferation inhibition rate (%)=(RLUcontrol−RLUcompound)/(RLUcontrol−RLUblank)×100% was calculated. The compound gradient dilution concentration and the corresponding cell proliferation inhibition rate were fit by using XLFit four-parameter method, and IC50 value was calculated.

BTK (C481S) = BTK (C481S) (Homo sapiens (Human), UniProt Q06187, C481S); assay: BTK C481S enzyme experiment (ADP-Glo kinase assay); assay type: biochemical; settings: 10 nM BTK C481S, ATP 125 μM, Poly(Glu4, Tyr1), 90 minutes at 20° C.
Chain of BTK (C481S) (Q06187 whole entry C481S): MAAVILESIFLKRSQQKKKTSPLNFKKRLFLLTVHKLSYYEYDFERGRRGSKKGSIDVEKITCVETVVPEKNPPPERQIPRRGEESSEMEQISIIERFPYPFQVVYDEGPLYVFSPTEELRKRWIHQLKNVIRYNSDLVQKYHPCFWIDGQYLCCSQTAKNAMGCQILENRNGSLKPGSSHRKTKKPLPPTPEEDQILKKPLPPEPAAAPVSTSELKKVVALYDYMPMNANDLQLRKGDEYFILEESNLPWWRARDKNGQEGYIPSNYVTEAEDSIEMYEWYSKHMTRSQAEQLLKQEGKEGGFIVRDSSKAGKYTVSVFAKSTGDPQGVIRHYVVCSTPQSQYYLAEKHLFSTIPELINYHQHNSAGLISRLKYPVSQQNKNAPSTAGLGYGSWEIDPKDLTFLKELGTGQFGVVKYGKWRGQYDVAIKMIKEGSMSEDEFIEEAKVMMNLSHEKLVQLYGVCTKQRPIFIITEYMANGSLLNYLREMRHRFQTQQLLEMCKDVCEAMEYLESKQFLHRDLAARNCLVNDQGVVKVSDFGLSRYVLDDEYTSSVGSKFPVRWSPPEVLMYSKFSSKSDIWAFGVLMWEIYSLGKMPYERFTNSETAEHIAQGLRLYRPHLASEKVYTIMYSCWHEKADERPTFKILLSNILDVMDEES
Procedure: as §1

Chain of BTK (Q06187 whole entry): as the sequence (Q06187 whole entry C481S) above, with S481C counted along it

SMILES | IC50 (BTK) [nM] | IC50 (TMD-8 cells) [nM] | IC50 (BTK (C481S)) [nM] | IC50 (TMD-8 cells; Homo sapiens, TMD8, 72 h) [nM]
COC1CCC2(C1)Nc1c(cnc3[nH]cc(C(=O)c4ccc(Oc5ccccc5)cc4Cl)c13)NC2=O (single isomer, unassigned) [Z25-3, 9′-(2-chloro-4-phenoxybenzoyl)-3-methoxy-4′,7′-dihydrospiro[cyclopentane-1,2′-pyrrolo[3′,2′:5,6]pyrido[3,4-b]pyrazin]-3′(1′H)-one] | 22.4 | 108 | 16.4 | –
COC1CCC2(C1)Nc1c(cnc3[nH]cc(C(=O)c4ccc(Oc5ccccc5)cc4Cl)c13)NC2=O (single isomer, unassigned) [Z25-3a, 9′-(2-chloro-4-phenoxybenzoyl)-3-methoxy-4′,7′-dihydrospiro[cyclopentane-1,2′-pyrrolo[3′,2′:5,6]pyrido[3,4-b]pyrazin]-3′(1′H)-one] | 15.4 | 102 | 7.6 | –
COC1CCC2(C1)Nc1c(cnc3[nH]cc(C(=O)c4ccc(Oc5ccccc5)cc4Cl)c13)NC2=O (single isomer, unassigned) [Z25-3b, 9′-(2-chloro-4-phenoxybenzoyl)-3-methoxy-4′,7′-dihydrospiro[cyclopentane-1,2′-pyrrolo[3′,2′:5,6]pyrido[3,4-b]pyrazin]-3′(1′H)-one] | 15.1 | 140 | 10 | –
N#C[C@H]1CC[C@@]2(C1)Nc1c(cnc3[nH]cc(C(=O)c4ccc(Oc5ccccc5)cc4Cl)c13)NC2=O (single isomer, unassigned) [Z26-2] | 23.6 | 159 | 17.5 | –
N#C[C@H]1CC[C@@]2(C1)Nc1c(cnc3[nH]cc(C(=O)c4ccc(Oc5ccccc5)cc4Cl)c13)NC2=O (single isomer, unassigned) [Z26-3] | 34 | 216 | 20.6 | –
O=C(c1ccc(Oc2ccccc2)cc1Cl)c1c[nH]c2ncc3c(c12)N[C@@]1(CC[C@H](CO)OC1)C(=O)N3 (single isomer, unassigned) [Z41-2b] | 7.9 | 101 | 6.1 | –
CN1C(=O)[C@](C)(CO)Nc2c1cnc1[nH]cc(C(=O)c3ccc(Oc4ccccc4)cc3Cl)c21 (single isomer, unassigned) [Z51-1] | 52.3 | 280 | 34.3 | –
CN1C(=O)[C@@](C)(CO)Nc2c1cnc1[nH]cc(C(=O)c3ccc(Oc4ccccc4)cc3Cl)c21 (single isomer, unassigned) [Z51-2] | 32.6 | 154 | 20.8 | –
COCC1(C)Nc2c(cnc3[nH]cc(C(=O)c4ccc(Oc5ccccc5)cc4Cl)c23)N(C)C1=O (single isomer, unassigned) [Z52-1, 9-(2-chloro-4-phenoxybenzoyl)-2-(methoxymethyl)-2,4-dimethyl-1,2,4,7-tetrahydro-3H-pyrrolo[3′,2′:5,6]pyrido[3,4-b]pyrazin-3-one] | 23.8 | – | 24.2 | 201
[2H]C([2H])([2H])OC[C@@]1(C)Nc2c(cnc3[nH]cc(C(=O)c4ccc(Oc5ccccc5)cc4Cl)c23)NC1=O (single isomer, unassigned) [Z66-2] | 12.7 | – | 8.6 | 299
COCCOCC1(C)Nc2c(cnc3[nH]cc(C(=O)c4ccc(Oc5ccccc5)cc4Cl)c23)NC1=O (single isomer, unassigned) [Z153-1, 9-(2-chloro-4-phenoxybenzoyl)-2-((2-methoxyethoxy)methyl)-2-methyl-1,2,4,7-tetrahydro-3H-pyrrolo[3′,2′:5,6]pyrido[3,4-b]pyrazin-3-one] | 45.8 | – | 26 | 342
O=C(c1ccc(Oc2ccccc2)cc1Cl)c1c[nH]c2ncc3c(c12)NC1(CCOC1)C(=O)N3 (stereo not drawn) [Z1, 9′-(2-chloro-4-phenoxybenzoyl)-4,4′,5,7′-tetrahydro-2H-spiro[furan-3,2′-pyrrolo[3′,2′:5,6]pyrido[3,4-b]pyrazin]-3′(1′H)-one] | 41.2 | – | 18.9 | 156
CN1CCC2(C1)Nc1c(cnc3[nH]cc(C(=O)c4ccc(Oc5ccccc5F)cc4Cl)c13)NC2=O (stereo not drawn) [Z6] | 19.3 | 151 | 14.1 | –
CN1CCC2(C1)Nc1c(cnc3[nH]cc(C(=O)c4ccc(Oc5cccc(F)c5)cc4Cl)c13)NC2=O (stereo not drawn) [Z7] | 28.3 | 258 | 17.8 | –
CN1CCC2(C1)Nc1c(cnc3[nH]cc(C(=O)c4ccc(Oc5ccccc5)cc4Cl)c13)N(C)C2=O (stereo not drawn) [Z8] | 73.6 | 469 | 27.9 | –
O=C(c1ccc(Oc2ccccc2)cc1Cl)c1c[nH]c2ncc3c(c12)NC1(CCN(C(=O)C2CC2)C1)C(=O)N3 (stereo not drawn) [Z10] | 70.2 | 310 | 25.4 | –
CN1CC2(C1)Nc1c(cnc3[nH]cc(C(=O)c4ccc(Oc5ccccc5)cc4Cl)c13)NC2=O [Z11, 9′-(2-chloro-4-phenoxybenzoyl)-1-methyl-4′,7′-dihydrospiro[azetidine-3,2′-pyrrolo[3′,2′:5,6]pyrido[3,4-b]pyrazin]-3′(1′H)-one] | 54.4 | – | 21.3 | 372
CN1CCC2(C1)Nc1c(cnc3[nH]cc(C(=O)c4ccc(Oc5cc(C(F)(F)F)ccn5)cc4Cl)c13)NC2=O (stereo not drawn) [Z12] | 26.4 | 480 | 45.8 | –
COC[C@@]1(C)Nc2c(cnc3[nH]cc(C(=O)c4ccc(Oc5ccccc5)cc4Cl)c23)NC1=O [Z13-2] | 40 | 183 | 23.2 | –
CC1(C)Nc2c(cnc3[nH]cc(C(=O)c4ccc(Oc5ccccc5)cc4Cl)c23)N(CCO)C1=O [Z15] | 57.4 | 626 | 71.7 | –
COC1CCC2(C1)Nc1c(cnc3[nH]cc(C(=O)c4ccc(Oc5ccccc5)cc4Cl)c13)NC2=O (stereo not drawn) [Z25, 9′-(2-chloro-4-phenoxybenzoyl)-3-methoxy-4′,7′-dihydrospiro[cyclopentane-1,2′-pyrrolo[3′,2′:5,6]pyrido[3,4-b]pyrazin]-3′(1′H)-one] | 6 | – | 4.9 | 130
CN1C(=O)C(C)(CO)Nc2c1cnc1[nH]cc(C(=O)c3ccc(Oc4ccccc4)cc3Cl)c21 (stereo not drawn) [Z51, 9-(2-chloro-4-phenoxybenzoyl)-2-(hydroxymethyl)-2,4-dimethyl-1,2,4,7-tetrahydro-3H-pyrrolo[3′,2′:5,6]pyrido[3,4-b]pyrazin-3-one] | 36.5 | – | 39.6 | 259
COCC1(C)Nc2c(cnc3[nH]cc(C(=O)c4ccc(Oc5cc(C)ccn5)cc4Cl)c23)N(C)C1=O (stereo not drawn) [Z65, 9-(2-chloro-4-((4-methylpyridin-2-yl)oxy)benzoyl)-2-(methoxymethyl)-2,4-dimethyl-1,2,4,7-tetrahydro-3H-pyrrolo[3′,2′:5,6]pyrido[3,4-b]pyrazin-3-one formate] | 30.6 | – | 31.2 | 509
[2H]C([2H])([2H])OCC1(C)Nc2c(cnc3[nH]cc(C(=O)c4ccc(Oc5ccccc5)cc4Cl)c23)NC1=O (stereo not drawn) [Z66, 9-(2-chloro-4-phenoxybenzoyl)-2-((methoxy-d3)methyl)-2-methyl-1,2,4,7-tetrahydro-3H-pyrrolo[3′,2′:5,6]pyrido[3,4-b]pyrazin-3-one] | 16.4 | – | 9.3 | 146
CCOCC1(C)Nc2c(cnc3[nH]cc(C(=O)c4ccc(Oc5ccccc5)cc4Cl)c23)NC1=O (stereo not drawn) [Z67, 9-(2-chloro-4-phenoxybenzoyl)-2-(ethoxymethyl)-2-methyl-1,2,4,7-tetrahydro-3H-pyrrolo[3′,2′:5,6]pyrido[3,4-b]pyrazin-3-one] | 40 | – | 18.3 | 262
COCC1(C)Nc2c(cnc3[nH]cc(C(=O)c4ccc(Oc5ccccc5)cc4F)c23)NC1=O (stereo not drawn) [Z71] | 20.2 | 171 | 21.3 | –
Cc1ccnc(Oc2ccc(C(=O)c3c[nH]c4ncc5c(c34)NC3(CCOCC3)C(=O)N5C)c(Cl)c2)c1 [Z72, 9′-(2-chloro-4-((4-methylpyridin-2-yl)oxy)benzoyl)-4′-methyl-2,3,4′,5,6,7′-hexahydrospiro[pyran-4,2′-pyrrolo[3′,2′:5,6]pyrido[3,4-b]pyrazin]-3′(1′H)-one] | 40 | – | 37.2 | 404
